Laboratory results published in US20210267203A1, “PESTICIDALLY ACTIVE AZOLE-AMIDE COMPOUNDS” (SYNGENTA PARTICIPATIONS AG, priority 2018, published 2021).

Key:
Format in all cases: in vivo
[1] = tested on: Plutella xylostella (Diamond Back Moth); experiment: Example B5: Plutella xylostella (diamond back moth), artificial diet, 24-well, eggs; conditions: 192 h, application rate 200 ppm, 8 days after infestation, read-out: effect in at least one of the two categories (mortality or growth inhibition)
Method: Example B5: Plutella xylostella (Diamond Back Moth)
24-well microtiter plates with artificial diet were treated with aqueous test solutions prepared from 10,000 ppm DMSO stock solutions by pipetting. After drying, Plutella eggs were pipetted through a plastic stencil onto a gel blotting paper and the plate was closed with it. The samples were assessed for mortality and growth inhibition in comparison to untreated samples 8 days after infestation. The following compounds gave an effect of at least 80% in at least one of the two categories (mortality or growth inhibition) at an application rate of 200 ppm: […]

[2] = tested on: Spodoptera littoralis (Egyptian Cotton Leaf Worm); experiment: Example B9: Spodoptera littoralis (Egyptian cotton leaf worm), cotton leaf discs sprayed, L1 larvae; conditions: foliar, 72 h, application rate 200 ppm, 3 days after infestation
Method: Example B9: Spodoptera littoralis (Egyptian Cotton Leaf Worm)
Cotton leaf discs were placed onto agar in 24-well microtiter plates and sprayed with aqueous test solutions prepared from 10,000 ppm DMSO stock solutions. After drying the leaf discs were infested with five L1 larvae. The samples were assessed for mortality, anti-feeding effect, and growth inhibition in comparison to untreated samples 3 days after infestation. Control of Spodoptera littoralis by a test sample is given when at least one of the three categories (i.e. mortality, anti-feedant effect, and growth inhibition) is higher than the untreated sample.

[3] = tested on: Chilo suppressalis (Striped Rice Stemborer); experiment: Example B4: Chilo suppressalis (striped rice stemborer), artificial diet, L2 larvae; conditions: 144 h, application rate 200 ppm, 6 days after infestation
Method: Example B4: Chilo suppressalis (Striped Rice Stemborer)
24-well microtiter plates with artificial diet were treated with aqueous test solutions prepared from 10,000 ppm DMSO stock solutions by pipetting. After drying, the plates were infested with L2 larvae (6-8 per well). The samples were assessed for mortality, anti-feeding effect, and growth inhibition in comparison to untreated samples 6 days after infestation. Control of Chilo suppressalis by a test sample is given when at least one of the categories (i.e. mortality, anti-feedant effect, and growth inhibition) is higher than the untreated sample.

[4] = tested on: Diabrotica Balteata (Corn Root Worm); experiment: Example B1: Diabrotica balteata (corn root worm), maize sprouts sprayed, L2 larvae; conditions: 96 h, application rate 200 ppm, 4 days after infestation, read-out: effect in at least one of the two categories (mortality or growth inhibition)
Method: Example B1: Diabrotica Balteata (Corn Root Worm)
Maize sprouts placed onto an agar layer in 24-well microtiter plates were treated with aqueous test solutions prepared from 10,000 ppm DMSO stock solutions by spraying. After drying, the plates were infested with L2 larvae (6 to 10 per well). The samples were assessed for mortality and growth inhibition in comparison to untreated samples 4 days after infestation.
(§1) The following compounds gave an effect of at least 80% in at least one of the two categories (mortality or growth inhibition) at an application rate of 200 ppm: […]

[5] = tested on: Euschistus heros (Neotropical Brown Stink Bug); experiment: Example B2: Euschistus heros (neotropical brown stink bug), soybean leaves sprayed, N2 nymphs; conditions: 120 h, application rate 200 ppm, 5 days after infestation, read-out: effect in at least one of the two categories (mortality or growth inhibition)
Method: Example B2: Euschistus heros (Neotropical Brown Stink Bug)
Soybean leaves on agar in 24-well microtiter plates were sprayed with aqueous test solutions prepared from 10,000 ppm DMSO stock solutions. After drying the leaves were infested with N2 nymphs. The samples were assessed for mortality and growth inhibition in comparison to untreated samples 5 days after infestation.
as §1

[6] = tested on: Myzus persicae (Green Peach Aphid); experiment: Example B8: Myzus persicae (green peach aphid), intrinsic activity; conditions: 120 h, test rate 12 ppm, sucrose solution, 24-well, 5 days after infestation
Source text: Example B8: Myzus persicae (Green Peach Aphid), Intrinsic Activity
Test compounds prepared from 10,000 ppm DMSO stock solutions were applied by pipette into 24-well microtiter plates and mixed with sucrose solution. The plates were closed with a stretched Parafilm. A plastic stencil with 24 holes was placed onto the plate and infested pea seedlings were placed directly on the Parafilm. The infested plate was closed with a gel blotting paper and another plastic stencil and then turned upside down. The samples were assessed for mortality 5 days after infestation.

[7] = tested on: Myzus persicae (Green Peach Aphid); experiment: Example B13: activity against Myzus persicae (green peach aphid), 96-well sucrose solution; conditions: 120 h, application rate 50 ppm, 5 days after infestation
Source text: Example B13: Activity Against Myzus persicae (Green Peach Aphid)
Test compounds prepared from 10,000 ppm DMSO stock solutions were applied by a liquid handling robot into 96-well microtiter plates and mixed with a sucrose solution. Parafilm was stretched over the 96-well microtiter plate and a plastic stencil with 96 holes was placed onto the plate. Aphids were sieved into the wells directly onto the Parafilm. The infested plates were closed with a gel blotting card and a second plastic stencil and then turned upside down. The samples were assessed for mortality 5 days after infestation.

[8] = tested on: Plutella xylostella (Diamondback Moth); experiment: Example B14: activity against Plutella xylostella (diamondback moth), 96-well artificial diet; conditions: 216 h, application rate 500 ppm, 9 days after infestation
Method: Example B14: Activity Against Plutella xylostella (Diamondback Moth)
96-well microtiter plates containing artificial diet were treated with aqueous test solutions, prepared from 10,000 ppm DMSO stock solutions, by a liquid handling robot. After drying, eggs (30 per well) were infested onto a netted lid which was suspended above the diet. The eggs hatch and L1 larvae move down to the diet. The samples were assessed for mortality 9 days after infestation.
The following compounds gave an effect of at least 80% average mortality at an application rate of 500 ppm: […]

[9] = tested on: Myzus persicae (Green Peach Aphid); experiment: Example B6: Myzus persicae (green peach aphid), feeding/contact activity; conditions: 144 h, application rate 200 ppm, 6 days after infestation
Method: Example B6: Myzus persicae (Green Peach Aphid):Feeding/Contact Activity
Sunflower leaf discs were placed onto agar in a 24-well microtiter plate and sprayed with aqueous test solutions prepared from 10,000 ppm DMSO stock solutions. After drying, the leaf discs were infested with an aphid population of mixed ages. The samples were assessed for mortality 6 days after infestation.

CC(NC(=O)c1cc(C2CC2)cc(C(F)(F)F)c1)c1ncnn1-c1ncc(Br)cn1 (centres unmarked) [P81, N-[1-[2-(5-bromopyrimidin-2-yl)-1,2,4-triazol-3-yl]ethyl]-3-cyclopropyl-5-(trifluoromethyl)benzamide]
≥ 80%: percent effect (mortality or growth inhibition) at 200 ppm [1] | percent control (mortality, anti-feedant effect or growth inhibition) at 200 ppm [2] | percent control (mortality, anti-feedant effect or growth inhibition) at 200 ppm [3] | percent effect (mortality or growth inhibition) at 200 ppm [4] | percent effect (mortality or growth inhibition) at 200 ppm [5]

Cc1nc(C(C)NC(=O)c2cc(C(F)(F)F)cc(C(C)(C)C#N)c2)n(-c2ncc(Br)cn2)n1 (centres unmarked) [P77, N-[1-[2-(5-bromopyrimidin-2-yl)-5-methyl-1,2,4-triazol-3-yl]ethyl]-3-(1-cyano-1-methyl-ethyl)-5-(trifluoromethyl)benzamide]
≥ 80%: percent effect (mortality or growth inhibition) at 200 ppm [1] | percent control (mortality, anti-feedant effect or growth inhibition) at 200 ppm [2] | percent control (mortality, anti-feedant effect or growth inhibition) at 200 ppm [3] | mortality at 12 ppm [6] | percent effect (mortality or growth inhibition) at 200 ppm [4] | percent effect (mortality or growth inhibition) at 200 ppm [5]

CC(NC(=O)c1cc(-c2ccccc2C(F)(F)F)cc(C(F)(F)F)c1)c1ncnn1-c1ncccn1 (centres unmarked) [P69, N-[1-(2-pyrimidin-2-yl-1,2,4-triazol-3-yl)ethyl]-3-(trifluoromethyl)-5-[2-(trifluoromethyl)phenyl]benzamide]
≥ 80%: percent effect (mortality or growth inhibition) at 200 ppm [1] | percent control (mortality, anti-feedant effect or growth inhibition) at 200 ppm [2] | percent control (mortality, anti-feedant effect or growth inhibition) at 200 ppm [3] | mortality at 50 ppm [7] | percent effect (mortality or growth inhibition) at 200 ppm [4]

CC(NC(=O)c1cc(C(F)(F)F)cc(C2(C)CC2(F)F)c1)c1ncnn1-c1ncccn1 (centres unmarked) [P88, 3-(2,2-difluoro-1-methyl-cyclopropyl)-N-[1-(2-pyrimidin-2-yl-1,2,4-triazol-3-yl)ethyl]-5-(trifluoromethyl)benzamide]
≥ 80%: percent effect (mortality or growth inhibition) at 200 ppm [1] | percent control (mortality, anti-feedant effect or growth inhibition) at 200 ppm [2] | percent control (mortality, anti-feedant effect or growth inhibition) at 200 ppm [3] | mortality at 50 ppm [7] | mortality at 12 ppm [6] | percent effect (mortality or growth inhibition) at 200 ppm [4] | percent effect (mortality or growth inhibition) at 200 ppm [5]

CC(NC(=O)c1cc(-c2cccc(C(F)(F)F)c2)cc(C(F)(F)F)c1)c1ncnn1-c1ncccn1 (centres unmarked) [P68, N-[1-(2-pyrimidin-2-yl-1,2,4-triazol-3-yl)ethyl]-3-(trifluoromethyl)-5-[3-(trifluoromethyl)phenyl]benzamide]
≥ 80%: percent effect (mortality or growth inhibition) at 200 ppm [1] | percent control (mortality, anti-feedant effect or growth inhibition) at 200 ppm [2] | percent control (mortality, anti-feedant effect or growth inhibition) at 200 ppm [3] | mortality at 50 ppm [7] | percent effect (mortality or growth inhibition) at 200 ppm [4]

CC(NC(=O)c1cc(C(F)(F)F)cc(C(C)(C)C#N)c1)c1ncnn1-c1ccccn1 (centres unmarked) [P75, 3-(1-cyano-1-methyl-ethyl)-N-[1-[2-(2-pyridyl)-1,2,4-triazol-3-yl]ethyl]-5-(trifluoromethyl)benzamide]
≥ 80%: percent effect (mortality or growth inhibition) at 200 ppm [1] | percent control (mortality, anti-feedant effect or growth inhibition) at 200 ppm [2] | percent control (mortality, anti-feedant effect or growth inhibition) at 200 ppm [3] | mortality at 12 ppm [6] | percent effect (mortality or growth inhibition) at 200 ppm [4]

CC(NC(=O)c1cc(C2CC2)cc(C(F)(F)F)c1)c1ncnn1-c1ncccn1 (centres unmarked) [P24, 3-cyclopropyl-N-[1-(2-pyrimidin-2-yl-1,2,4-triazol-3-yl)ethyl]-5-(trifluoromethyl)benzamide]
≥ 80%: mortality at 500 ppm [8] | percent effect (mortality or growth inhibition) at 200 ppm [1] | percent control (mortality, anti-feedant effect or growth inhibition) at 200 ppm [2] | mortality at 200 ppm [9] | mortality at 50 ppm [7] | mortality at 12 ppm [6] | percent effect (mortality or growth inhibition) at 200 ppm [4] | percent effect (mortality or growth inhibition) at 200 ppm [5]

CC(NC(=O)c1cc(OCC(F)F)cc(C2CC2)c1)c1ncnn1-c1ncccn1 (centres unmarked) [P61, 3-cyclopropyl-5-(2,2-difluoroethoxy)-N-[1-(2-pyrimidin-2-yl-1,2,4-triazol-3-yl)ethyl]benzamide]
≥ 80%: percent effect (mortality or growth inhibition) at 200 ppm [1] | percent control (mortality, anti-feedant effect or growth inhibition) at 200 ppm [2] | percent control (mortality, anti-feedant effect or growth inhibition) at 200 ppm [3] | mortality at 200 ppm [9] | mortality at 12 ppm [6] | percent effect (mortality or growth inhibition) at 200 ppm [5]

Cc1nc(C(C)NC(=O)c2cc(C3CC3)cc(C(F)(F)F)c2)n(-c2ncc(Br)cn2)n1 (centres unmarked) [P80, N-[1-[2-(5-bromopyrimidin-2-yl)-5-methyl-1,2,4-triazol-3-yl]ethyl]-3-cyclopropyl-5-(trifluoromethyl)benzamide]
≥ 80%: percent effect (mortality or growth inhibition) at 200 ppm [1] | percent control (mortality, anti-feedant effect or growth inhibition) at 200 ppm [2] | percent control (mortality, anti-feedant effect or growth inhibition) at 200 ppm [3] | percent effect (mortality or growth inhibition) at 200 ppm [4] | percent effect (mortality or growth inhibition) at 200 ppm [5]

Cc1nc(C(C)NC(=O)c2cc(C3CC3)cc(C(F)(F)F)c2)n(-c2ncccn2)n1 (centres unmarked) [P86, 3-cyclopropyl-N-[1-(5-methyl-2-pyrimidin-2-yl-1,2,4-triazol-3-yl)ethyl]-5-(trifluoromethyl)benzamide]
≥ 80%: percent effect (mortality or growth inhibition) at 200 ppm [1] | percent control (mortality, anti-feedant effect or growth inhibition) at 200 ppm [2] | percent control (mortality, anti-feedant effect or growth inhibition) at 200 ppm [3] | mortality at 12 ppm [6] | percent effect (mortality or growth inhibition) at 200 ppm [4] | percent effect (mortality or growth inhibition) at 200 ppm [5]

CC(NC(=O)c1cc(-c2ccc(C(F)(F)F)cc2)cc(C(F)(F)F)c1)c1ncnn1-c1ncccn1 (centres unmarked) [P67, N-[1-(2-pyrimidin-2-yl-1,2,4-triazol-3-yl)ethyl]-3-(trifluoromethyl)-5-[4-(trifluoromethyl)phenyl]benzamide]
≥ 80%: percent effect (mortality or growth inhibition) at 200 ppm [1] | percent control (mortality, anti-feedant effect or growth inhibition) at 200 ppm [3] | mortality at 50 ppm [7] | percent effect (mortality or growth inhibition) at 200 ppm [4]
